Measurements published in patent US11278575B2, “Compositions and methods for the treatment of demyelinating conditions” (Duke University, priority 2018, dated 2022).

Experiments:
DUOC-01 cells [1] = experiment: Stability of day 21 DUOC-01 cells incubated with HC or Dex: viability (AOPI) and total viable cell count; assay type: cell-based, human; settings: for Averaged total viable cell numbers: DUOC-01 cells in Ringers, HC 3 mg/ml or Dex 25 ng/ml, average of six experiments
Description: FIG. 1 illustrates that HC increases the viability of DUOC-01 cells over time. Viability was measured by AOPI using the Nexcelom Cellometer Auto 2000 (n=6 samples per time point; 2-way ANOVA p<0.001 for treatment factor; Tukey's post-hoc[…]).
(§1) First, to test stability, day +21 DUOC-01 cells were harvested into ringers lactate and incubated with HC for up to 4 hours to determine whether there was any change in viability or stability.
(§2) DUOC-01 cells were cultured using standard procedures from cryopreserved and thawed cord blood units, then harvested on day 21 and re-suspended in Ringers. After initial count and viability, the cell suspension was divided into three conditions: (1) Ringer's solution, (2) 3 mg/ml HC, (3) 25 ng/ml Dex.
(§3) Based on previous stability studies, the cells were incubated for 4 hours at room temperature and characterized every hour for 4 hours. The viability of DUOC-01 cells over time was consistently greater with cells incubated with HC compared to DUOC-01 cells incubated with dexamethasone or Ringer's solution (FIG. 1).

[2] = system: corpus callosum of NSG mice treated with cuprizone; experiment: Cuprizone demyelination model, myelination score by LFB-PAS staining; assay type: in vivo; settings: one week after injection into corpus callosum of CPZ-treated mice; 1×10^5 cells; cells incubated 2 hours in 3 mg/ml HC where HC is used
Description: Myelination score based on LFB-PAS staining of mice one week after treatment of CPZ-treated mice with, Ringer's, Ringers+HC, DUOC-01 cells, or DUOC-01 cells exposed to HC (1×10^5 cell injected). […] Two independent, blinded readers scored coded LFB-PAS stained sections at the mid-line corpus callosum area, between zero and 3. Data are presented as mean ±SEM (ANOVA for cells P<0.001; n=9-16 mice per group, *P<0.05, Tukey's post-hoc test; pooled 2 independent experiments). […] DUOC-01 cells were cultured via standard procedures from frozen cord blood units in the GMP facility and harvested on day 21. After initial count and viability, the cell suspension was split into two conditions at a concentration of 20,000 cells/μl: (1) Ringers, and (2) Ringers +3 mg/ml HC. Based on previous stability studies, the cells were incubated in HC for 2 hours at room temperature prior to injections. To determine if HC would affect the ability of DUOC-01 cells to promote remyelination, Ringer's solution or DUOC-01 cells was injected into the corpus callosum of NSG mice treated with cuprizone, as previously described (Saha et al. JCI Insight 2016). One week following treatment, brains were harvested and analysis of myelination by LFB-PAS staining was conducted.

DUOC-01 cells [3] = experiment: Surface marker expression of DUOC-01 cells by flow cytometry after adding HC or Dex; assay type: cell-based, human; settings: up to 4 hours after adding HC (3 mg/ml) or Dex (25 ng/ml)
Description: DUOC-01 cells were collected 4 hours after adding HC or dexamethasone (Dex). The expression of CD45 (FIG. 2A), CD11b (FIG. 2B), Trem2 (FIG. 2C), and CD14 (FIG. 2D) were analyzed by flow cytometry (n=6 per condition).
as §1, §2, §3

C[C@]12CCC(=O)C=C1CC[C@@H]1[C@@H]2[C@@H](O)C[C@@]2(C)[C@H]1CC[C@]2(O)C(=O)CO [HC, hydrocortisone]
Averaged total viable cell numbers (DUOC-01 cells [1]; 1 hr at room temperature): 959,688
Averaged total viable cell numbers (DUOC-01 cells [1]; 2 hr at room temperature): 821,667
Averaged total viable cell numbers (DUOC-01 cells [1]; 3 hr at room temperature): 910,604
Averaged total viable cell numbers (DUOC-01 cells [1]; 4 hr at room temperature): 742,000
Viability of DUOC-01 cells over time (AOPI) (DUOC-01 cells [1]; up to 4 hours, 3 mg/ml HC, compared with dexamethasone or Ringer's solution): improved the viability
Remyelination (myelination score, LFB-PAS, mid-line corpus callosum) [2]: did not inhibit the ability of DUOC-01 cells to promote remyelination
Expression level of DUOC-01 surface markers (CD45, CD14, TREM2, CD11b) (DUOC-01 cells [3]): did not change the expression level

C[C@@H]1C[C@H]2[C@@H]3CCC4=CC(=O)C=C[C@]4(C)[C@@]3(F)[C@@H](O)C[C@]2(C)[C@@]1(O)C(=O)CO [Dexamethazone, dexamethasone]
Averaged total viable cell numbers (DUOC-01 cells [1]; 1 hr at room temperature): 923,563
Averaged total viable cell numbers (DUOC-01 cells [1]; 2 hr at room temperature): 813,750
Averaged total viable cell numbers (DUOC-01 cells [1]; 3 hr at room temperature): 821,250
Averaged total viable cell numbers (DUOC-01 cells [1]; 4 hr at room temperature): 706,875
